Data on one molecule can be found in US10919764B2, “Multi-chamber hypochlorous acid dispenser” (WIAB WATER […], priority 2016, dated 2021).

For the experiment, the system named is spores. As to conditions: acid used for protonization of HOCl. An excerpt: In addition to buffering the product during storage and after application, acetic acid also has the advantage of improving the sporicidal effect by 40% compared to other acids used for protonization of HOCl.

For the molecule `CC(=O)O` [acetic acid], the “improvement of the sporicidal effect compared to other acids used for protonization of HOCl” value amounted to 40%.
